Experiment [1] deals with purified human, His-tagged PRC2 complex (Homo sapiens (Human), UniProt O75530). Put plainly: Hot Spot HMT assay of PRC2 enzymatic activity (tritiated methyl transfer from SAM to core histone). Type of experiment: biochemical. Particulars: 10 nM purified PRC2 complex, 0.05 mg/ml core histone H3, 1 uM 3H-SAM, 1 hr at 30° C.; read-out: IC50, Inhibition of PRC2-mediated Enzymatic Activity. The method in brief:
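10 nM His-tagged five-subunit PRC2 complex (EZH2, EED, SUZ12, AEBP2, RbAp48) with 0.05 mg/ml core histone H3 in pH 8 Tris buffer, 1% DMSO, preincubated with compound 20 min at 30° C; reaction started with 1 uM [3H]-SAM, 1 hr at 30° C. Filter binding plus scintillation counting; IC50 from 10-point, three-fold dilutions starting at 1.0 μM.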

Experiment [2] has as its system PRC2-mediated histone H3 methylation (H3 Lys27 trimethylation) in Pfeiffer cells expressing mutant EZH2 (A677G). Put plainly: Tri-Methyl Histone H3 (Lys 27) sandwich ELISA in Pfeiffer cells. The experiment is classed as cell-based, human. Particulars: Homo sapiens; Pfeiffer cells, 96 hours incubation, ELISA; read-out: IC50, Inhibition of EZH2-mediated Histone H3 Trimethylation. The method in brief: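 Pfeiffer DLBCL cells carrying EZH2 A677G were treated for 96 h at 37 °C with 3-fold dilutions, 1 μM to 0.15 nM final. Acid-extracted histones, neutralized, went into a sandwich ELISA for H3K27me3 with HRP/TMB read-out at 450 nm. Values binned A ≤250 nM, B >250–≤500 nM, C >500 nM–≤5 μM.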

The subject of experiment [3] is Karpas 422 cells expressing mutant EZH2 (Y641N). Briefly: Karpas 422 cell viability (Cell Titre Glo) assay. Type of experiment: cell-based, human. The following applies: Homo sapiens, CTG viability, time point (Day 4, Day 7 or Day 11) not given, read-out: IC50, Inhibiting Proliferation of Cells Expressing an Activating Mutant Form of EZH2. The method in brief:
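Cells plated at 1000/well were exposed to final concentrations from 10 μM down to 1.5 nM (3-fold steps) at 37° C. Viability was read by CellTiter-Glo on day 4, 7 or 11; day-11 plates were re-fed with compound on day 7. IC50 reported per time point in binned ranges.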

This is an account of results in patent publication US12252493B2, “Imidazo[1,2-c]pyrimidine derivatives as PRC2 inhibitors for treating cancer” (Mirati Therapeutics, Inc., priority 2019, dated 2025).

Sequence of purified human, His-tagged PRC2 complex (Q15910 whole entry): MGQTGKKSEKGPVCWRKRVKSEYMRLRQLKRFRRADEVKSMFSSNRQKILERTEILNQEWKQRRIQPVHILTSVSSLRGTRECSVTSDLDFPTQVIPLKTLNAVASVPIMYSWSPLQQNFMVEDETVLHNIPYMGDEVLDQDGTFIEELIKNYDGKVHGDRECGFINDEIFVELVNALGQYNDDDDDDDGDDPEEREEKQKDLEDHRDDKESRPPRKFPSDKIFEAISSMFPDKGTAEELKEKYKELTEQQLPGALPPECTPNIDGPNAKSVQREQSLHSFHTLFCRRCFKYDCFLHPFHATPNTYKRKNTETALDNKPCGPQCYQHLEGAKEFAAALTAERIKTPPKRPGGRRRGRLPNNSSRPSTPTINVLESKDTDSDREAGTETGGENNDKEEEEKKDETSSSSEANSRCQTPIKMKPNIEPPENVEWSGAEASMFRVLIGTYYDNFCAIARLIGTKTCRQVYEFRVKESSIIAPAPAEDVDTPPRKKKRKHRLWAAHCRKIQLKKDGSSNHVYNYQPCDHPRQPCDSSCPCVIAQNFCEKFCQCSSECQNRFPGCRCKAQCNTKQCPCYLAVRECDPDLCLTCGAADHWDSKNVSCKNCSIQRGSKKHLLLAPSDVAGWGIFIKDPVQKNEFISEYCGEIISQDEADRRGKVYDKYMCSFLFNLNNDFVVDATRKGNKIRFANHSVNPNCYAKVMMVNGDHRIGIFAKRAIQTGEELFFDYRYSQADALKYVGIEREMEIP
Sequence of purified human, His-tagged PRC2 complex (O75530 whole entry): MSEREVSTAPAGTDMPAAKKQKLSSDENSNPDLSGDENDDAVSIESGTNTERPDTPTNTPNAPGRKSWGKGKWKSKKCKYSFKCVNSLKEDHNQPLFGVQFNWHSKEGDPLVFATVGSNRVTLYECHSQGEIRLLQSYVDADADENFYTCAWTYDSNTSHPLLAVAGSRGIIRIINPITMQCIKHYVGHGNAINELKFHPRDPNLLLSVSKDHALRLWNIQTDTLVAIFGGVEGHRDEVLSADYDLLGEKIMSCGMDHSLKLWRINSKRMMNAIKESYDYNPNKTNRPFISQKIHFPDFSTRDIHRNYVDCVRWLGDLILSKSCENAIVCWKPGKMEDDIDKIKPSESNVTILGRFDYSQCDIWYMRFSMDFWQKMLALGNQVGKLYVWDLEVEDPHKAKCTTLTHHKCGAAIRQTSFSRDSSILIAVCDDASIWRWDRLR
Sequence of purified human, His-tagged PRC2 complex (Q15022 whole entry partner): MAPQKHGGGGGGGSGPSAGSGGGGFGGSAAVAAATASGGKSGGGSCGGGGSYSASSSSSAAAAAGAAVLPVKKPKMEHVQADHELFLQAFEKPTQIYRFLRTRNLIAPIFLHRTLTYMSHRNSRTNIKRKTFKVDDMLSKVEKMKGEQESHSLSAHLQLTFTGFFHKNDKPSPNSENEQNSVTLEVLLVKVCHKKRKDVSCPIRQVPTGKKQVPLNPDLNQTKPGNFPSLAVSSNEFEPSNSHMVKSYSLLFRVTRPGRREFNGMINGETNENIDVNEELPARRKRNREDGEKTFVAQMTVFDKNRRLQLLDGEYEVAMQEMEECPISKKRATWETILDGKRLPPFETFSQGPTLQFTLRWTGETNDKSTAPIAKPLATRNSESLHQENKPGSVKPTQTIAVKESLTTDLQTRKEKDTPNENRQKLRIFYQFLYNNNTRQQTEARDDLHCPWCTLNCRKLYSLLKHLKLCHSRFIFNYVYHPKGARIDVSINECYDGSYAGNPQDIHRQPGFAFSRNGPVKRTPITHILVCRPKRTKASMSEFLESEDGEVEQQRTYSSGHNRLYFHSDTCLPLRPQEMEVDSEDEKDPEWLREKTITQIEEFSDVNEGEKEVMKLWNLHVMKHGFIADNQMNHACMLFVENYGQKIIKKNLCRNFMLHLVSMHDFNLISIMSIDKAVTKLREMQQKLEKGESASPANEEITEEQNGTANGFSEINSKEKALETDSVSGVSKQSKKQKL
Sequence of purified human, His-tagged PRC2 complex (Q6ZN18 whole entry partner): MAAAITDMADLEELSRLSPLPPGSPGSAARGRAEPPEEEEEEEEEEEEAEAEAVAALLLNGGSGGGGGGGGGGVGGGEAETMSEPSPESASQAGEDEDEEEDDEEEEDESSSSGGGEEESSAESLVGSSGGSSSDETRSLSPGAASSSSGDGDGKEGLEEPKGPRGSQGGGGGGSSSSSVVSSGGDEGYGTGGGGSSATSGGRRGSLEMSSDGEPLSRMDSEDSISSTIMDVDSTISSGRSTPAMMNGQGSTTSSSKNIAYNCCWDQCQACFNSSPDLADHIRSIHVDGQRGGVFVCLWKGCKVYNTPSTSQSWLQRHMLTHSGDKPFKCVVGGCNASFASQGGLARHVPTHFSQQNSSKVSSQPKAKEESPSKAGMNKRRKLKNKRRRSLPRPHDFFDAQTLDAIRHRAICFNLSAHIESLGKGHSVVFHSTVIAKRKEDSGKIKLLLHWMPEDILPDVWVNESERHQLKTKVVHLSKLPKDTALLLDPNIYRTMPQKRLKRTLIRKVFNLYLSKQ
Sequence of purified human, His-tagged PRC2 complex (Q09028 whole entry partner): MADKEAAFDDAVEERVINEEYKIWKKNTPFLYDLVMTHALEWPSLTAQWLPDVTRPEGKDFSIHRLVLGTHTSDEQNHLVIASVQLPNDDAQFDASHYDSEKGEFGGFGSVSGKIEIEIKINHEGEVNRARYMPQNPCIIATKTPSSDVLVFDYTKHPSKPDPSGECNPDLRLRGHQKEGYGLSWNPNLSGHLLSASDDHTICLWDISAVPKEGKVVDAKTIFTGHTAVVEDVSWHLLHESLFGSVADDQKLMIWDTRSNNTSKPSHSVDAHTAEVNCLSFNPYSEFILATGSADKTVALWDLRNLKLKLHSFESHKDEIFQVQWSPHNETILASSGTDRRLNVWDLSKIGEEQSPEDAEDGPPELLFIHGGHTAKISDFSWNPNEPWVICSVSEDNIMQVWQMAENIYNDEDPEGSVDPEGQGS

On to `Cc1cc(-c2cnc(NCc3c(F)ccc4c3CCO4)n3cc(CNCc4ccccc4)nc23)n(C)n1` [Example 32, 2-((benzylamino)methyl)-8-(1,3-dimethyl-1H-pyrazol-5-yl)-N-((5-fluoro-2,3-dihydrobenzofuran-4-yl)methyl)imidazo[1,2-c]pyrimidin-5-amine], for which the values for the IC50 in experiment [1], in experiment [2] and in experiment [3] were 500 to 2000 nM, 250 to 500 nM and less than 250 nM, respectively.
Turning to `Cc1cc(-c2cnc(NCc3c(F)ccc4c3CCO4)n3cc(CNC4CC4)nc23)n(C)n1` [Example 33, 2-((cyclopropylamino)methyl)-8-(1,3-dimethyl-1H-pyrazol-5-yl)-N-((5-fluoro-2,3-dihydrobenzofuran-4-yl)methyl)imidazo[1,2-c]pyrimidin-5-amine], the IC50 in experiment [1] lay within 500 to 2000 nM; in experiment [2] it was 250 to 500 nM; in experiment [3] it was 250 to 500 nM.
In the case of `Cc1cc(S(C)(=O)=O)ccc1-c1cnc(NCc2c(F)ccc3c2CCO3)n2cc(C(C)N)nc12` (stereo not drawn) [Example 34, 2-(1-aminoethyl)-N-((5-fluoro-2,3-dihydrobenzofuran-4-yl)methyl)-8-(2-methyl-4-(methylsulfonyl)phenyl)imidazo[1,2-c]pyrimidin-5-amine], the IC50 in experiment [1], in experiment [2] and in experiment [3] was less than 250 nM throughout.
On to `Cc1cc(C(=O)N(C)C)ncc1-c1cnc(NCc2c(F)ccc3c2CCO3)n2cc(C(C)N)nc12` (stereo not drawn) [Example 35, 5-(2-(1-aminoethyl)-5-(((5-fluoro-2,3-dihydrobenzofuran-4-yl)methyl)amino)imidazo[1,2-c]pyrimidin-8-yl)-N,N,4-trimethylpicolinamide], for which the IC50 in experiment [1], in experiment [2] and in experiment [3] was less than 250 nM in each case.
In the case of `CC(N)c1cn2c(NCc3c(F)ccc4c3CCO4)ncc(-c3cc(C(F)(F)F)nn3C)c2n1` (stereo not drawn) [Example 36, 2-(1-aminoethyl)-N-((5-fluoro-2,3-dihydrobenzofuran-4-yl)methyl)-8-(1-methyl-3-(trifluoromethyl)-1H-pyrazol-5-yl)imidazo[1,2-c]pyrimidin-5-amine], the IC50 in experiment [1], in experiment [2] and in experiment [3] was less than 250 nM throughout.
On to `Cc1cc(CN(C)C)ccc1-c1cnc(NCc2c(F)ccc3c2CCO3)n2cc(C(C)N)nc12` (stereo not drawn) [Example 37, 2-(1-aminoethyl)-8-(4-((dimethylamino)methyl)-2-methylphenyl)-N-((5-fluoro-2,3-dihydrobenzofuran-4-yl)methyl)imidazo[1,2-c]pyrimidin-5-amine], for which the IC50 in experiment [1], in experiment [2] and in experiment [3] was less than 250 nM throughout.
In the case of `Cc1cc(-c2cnc(NCc3c(F)ccc4c3CCO4)n3cc(C(C)N)nc23)ccn1` (stereo not drawn) [Example 38, 2-(1-aminoethyl)-N-((5-fluoro-2,3-dihydrobenzofuran-4-yl)methyl)-8-(2-methylpyridin-4-yl)imidazo[1,2-c]pyrimidin-5-amine], the IC50 in experiment [1], in experiment [2] and in experiment [3] was less than 250 nM each time.
For the molecule `Cc1ncccc1-c1cnc(NCc2c(F)ccc3c2CCO3)n2cc(C(C)N)nc12` (stereo not drawn) [Example 39, 2-(1-aminoethyl)-N-((5-fluoro-2,3-dihydrobenzofuran-4-yl)methyl)-8-(2-methylpyridin-3-yl)imidazo[1,2-c]pyrimidin-5-amine], the IC50 in experiment [1], in experiment [2] and in experiment [3] was less than 250 nM each time.
As for `CC(N)c1cn2c(NCc3c(F)ccc4c3CCO4)ncc(-c3cc(C#N)nn3C)c2n1` (stereo not drawn) [Example 40, 5-(2-(1-aminoethyl)-5-(((5-fluoro-2,3-dihydrobenzofuran-4-yl)methyl)amino)imidazo[1,2-c]pyrimidin-8-yl)-1-methyl-1H-pyrazole-3-carbonitrile], the IC50 in experiment [1], in experiment [2] and in experiment [3] was less than 250 nM in each case.
In the case of `Cc1cc(-c2cnc(NCc3c(F)ccc4c3CCO4)n3cc(C(N)C4CC4)nc23)n(C)n1` (stereo not drawn) [Example 41, 2-(amino(cyclopropyl)methyl)-8-(1,3-dimethyl-1H-pyrazol-5-yl)-N-((5-fluoro-2,3-dihydrobenzofuran-4-yl)methyl)imidazo[1,2-c]pyrimidin-5-amine], the IC50 in experiment [1], in experiment [2] and in experiment [3] was less than 250 nM throughout.
For `Cc1cc(-c2cnc(NCc3c(F)ccc4c3CCO4)n3cc(-c4nnco4)nc23)n(C)n1` [Example 44, 8-(1,3-dimethyl-1H-pyrazol-5-yl)-N-((5-fluoro-2,3-dihydrobenzofuran-4-yl)methyl)-2-(1,3,4-oxadiazol-2-yl)imidazo[1,2-c]pyrimidin-5-amine], the IC50 in experiment [1], in experiment [2] and in experiment [3] was less than 250 nM each time.
As for `Cc1cc(-c2cnc(NCc3c(F)ccc4c3CCO4)n3cc(-c4cnco4)nc23)n(C)n1` [Example 45, 8-(1,3-dimethyl-1H-pyrazol-5-yl)-N-((5-fluoro-2,3-dihydrobenzofuran-4-yl)methyl)-2-(oxazol-5-yl)imidazo[1,2-c]pyrimidin-5-amine], the IC50 is less than 250 nM in experiment [1], 250 to 500 nM in experiment [2] and less than 250 nM in experiment [3].
